Laboratory results as given in patent US20210008145A1, “EDICINE COMPOSITION FOR TREATMENT OF HUMAN PAPILLOMAVIRUS INFECTION AND PREPARATION METHOD THEREOF” (Jiangsu Zhengyang Pharmaceutical Co., Ltd., priority 2018, published 2021).
Like-named read-outs stand apart in the source and are kept apart here.

System: HeLa cells
Test: MTT assay, inhibition of HeLa cell proliferation
Type: cell-based
Conditions: Homo sapiens, crude drug 25 g/L (cidofovir 10 μmol/mL), read-out: inhibition percentage on HeLa cell proliferation
Method: The percentage inhibition on HeLa cell proliferation for each compound prepared in Examples 1-7 was determined by MTT assay (MTT Cell Proliferation and Cytotoxicity Assay Kit). HeLa cells was cultured in a 96-well plate for 6.0×10^3 cells per well, and allowed to adhere to the surface of the 96-well plate. Serum-free medium was added to each well of control group. Cidofovir was diluted in purified water such that the final concentration of cidofovir in the assay was 10 μmol/mL, and the resulting solution was added to each well of positive control group. Each compound of Examples 1-7 was diluted in water to a crude drug concentration of 25 g/L, and the resulting solution was added to the 96-well plate for a final volume of 200 μL per well. 200 μL of complete medium was only added to each well of blank control group. Each experimental group was done in 6 well replicates. After incubation of 24, 48, and 72 hours, 20 μL of 5 g/L MTT was added to each well and the plates were further incubated at 37° C. for 4 hours. Following discarding the supernatant, 200 μL of dimethyl sulfoxide (DMSO) was added to each well and the plates were shaken sufficiently as so to dissolve the crystals. Absorbance (A) of the wells at 490 nm was measured. These measurements then are used to calculate the percentage inhibition of cell growth: percentage inhibition=1−[…]×100%, where TA refers to the average absorbance of treatment group, and CA refers to the average absorbance of control group.

Structure (SMILES): Nc1ccn(C[C@@H](CO)OCP(=O)(O)O)c(=O)n1 [Cidofovir]
- inhibition at 25000 µg/mL (24 hours): 32.2 ± 2.08%
- inhibition at 25000 µg/mL (48 hours): 48.6 ± 3.5%
- inhibition at 25000 µg/mL (72 hours): 58.1 ± 3.21%
